Values quoted from earlier work in publication PMC7893915, “Assessing cross-resistance within the pyrethroids in terms of their interactions with key cytochrome P450 enzymes and resistance in vector populations” (Parasites & Vectors, 2021).

Tests used:
CYP6Z2 = target: T1, CYP6Z2 (Anopheles gambiae, UniProt Q7PNB5); conditions: read-out: IC50 CYP6Z2; inhibition of diethoxyfluorescein metabolism; footnote a; ref Yunta et al. 2016[8]; cited from earlier work
T1 sequence (Q7PNB5 1-492): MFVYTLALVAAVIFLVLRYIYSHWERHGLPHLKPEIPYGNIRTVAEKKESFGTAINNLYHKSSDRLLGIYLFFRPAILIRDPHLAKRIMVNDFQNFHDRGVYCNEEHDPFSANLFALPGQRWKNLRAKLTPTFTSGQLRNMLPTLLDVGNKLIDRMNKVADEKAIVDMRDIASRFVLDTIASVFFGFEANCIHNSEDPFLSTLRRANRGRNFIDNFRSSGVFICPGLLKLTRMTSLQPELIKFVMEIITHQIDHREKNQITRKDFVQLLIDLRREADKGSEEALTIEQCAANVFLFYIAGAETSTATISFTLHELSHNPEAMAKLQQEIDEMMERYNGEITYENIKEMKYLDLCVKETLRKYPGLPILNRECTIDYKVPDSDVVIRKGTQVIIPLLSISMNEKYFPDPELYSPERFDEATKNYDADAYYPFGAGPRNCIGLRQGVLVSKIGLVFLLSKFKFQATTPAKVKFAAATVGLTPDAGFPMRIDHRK
T1 sequence (Q86QH5 1-679 partner): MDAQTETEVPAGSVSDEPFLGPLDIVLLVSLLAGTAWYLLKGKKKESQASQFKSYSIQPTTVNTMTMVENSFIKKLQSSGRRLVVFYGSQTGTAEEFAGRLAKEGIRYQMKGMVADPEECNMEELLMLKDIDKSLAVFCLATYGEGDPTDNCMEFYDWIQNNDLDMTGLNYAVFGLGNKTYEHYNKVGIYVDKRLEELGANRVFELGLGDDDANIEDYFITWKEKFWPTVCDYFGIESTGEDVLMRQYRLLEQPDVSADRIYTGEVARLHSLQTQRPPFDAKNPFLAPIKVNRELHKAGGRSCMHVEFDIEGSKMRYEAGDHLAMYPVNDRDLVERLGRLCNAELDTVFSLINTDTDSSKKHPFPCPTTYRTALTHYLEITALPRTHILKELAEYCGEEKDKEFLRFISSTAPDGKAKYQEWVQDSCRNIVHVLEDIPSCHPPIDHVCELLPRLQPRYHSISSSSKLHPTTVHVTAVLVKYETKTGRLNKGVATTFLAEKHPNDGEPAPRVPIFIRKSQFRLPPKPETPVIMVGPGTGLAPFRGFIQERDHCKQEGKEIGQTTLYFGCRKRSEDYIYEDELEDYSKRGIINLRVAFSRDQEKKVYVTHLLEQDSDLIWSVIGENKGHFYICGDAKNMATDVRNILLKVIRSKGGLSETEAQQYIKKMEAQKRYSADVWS

CYP6M7 = conditions: two earlier studies; ref [28]; cited from earlier work
CYP6P9a = conditions: two earlier studies; ref [28]; cited from earlier work
CYP6P9b = conditions: two earlier studies; ref [28]; cited from earlier work

Row | Structure (SMILES) | IC50 (CYP6Z2) [µM] | depletion (metabolised) by CYP6M7 (CYP6M7) [%] | depletion (metabolised) by CYP6P9a (CYP6P9a) [%] | depletion (metabolised) by CYP6P9b (CYP6P9b) [%]
1 | CC1(C)[C@H](C(=O)O[C@H](C#N)c2cccc(Oc3ccccc3)c2)[C@@H]1C=C(Br)Br [Deltamethrin, deltamethrin] | 13.9 |  |  | 
2 | CC1(C)C(C=C(Cl)Cl)C1C(=O)OCc1cccc(Oc2ccccc2)c1 (centres unmarked) [Permethrin, permethrin] | 13.7 |  |  | 
3 | Cc1c(COC(=O)[C@@H]2[C@H](/C=C(\Cl)C(F)(F)F)C2(C)C)cccc1-c1ccccc1 (racemic) [Bifenthrin, bifenthrin] |  | 62 | 68 | 71
